Columns and labels:
[1] = target: Mu-type opioid receptor (Homo sapiens) (UniProt P35372); conditions: Compound concentration 10.0 uM
[2] = target: Alpha-1D adrenergic receptor (Homo sapiens) (UniProt P25100); test: Inhibition of Adrenergic alpha1D at 10 µM in the Eurofins-Panlabs radioligand binding assay (Eurofins_assay_203400); conditions: Compound concentration 10.0 uM
[3] = target: D(3) dopamine receptor (Homo sapiens) (UniProt P35462); conditions: Compound concentration 10.0 uM
[4] = target: Histamine H4 receptor (Homo sapiens) (UniProt Q9H3N8); conditions: Compound concentration 10.0 uM
[5] = target: T1, 5-hydroxytryptamine receptor 3A (Homo sapiens) (UniProt P46098); conditions: Compound concentration 10.0 uM
T1 sequence (whole entry): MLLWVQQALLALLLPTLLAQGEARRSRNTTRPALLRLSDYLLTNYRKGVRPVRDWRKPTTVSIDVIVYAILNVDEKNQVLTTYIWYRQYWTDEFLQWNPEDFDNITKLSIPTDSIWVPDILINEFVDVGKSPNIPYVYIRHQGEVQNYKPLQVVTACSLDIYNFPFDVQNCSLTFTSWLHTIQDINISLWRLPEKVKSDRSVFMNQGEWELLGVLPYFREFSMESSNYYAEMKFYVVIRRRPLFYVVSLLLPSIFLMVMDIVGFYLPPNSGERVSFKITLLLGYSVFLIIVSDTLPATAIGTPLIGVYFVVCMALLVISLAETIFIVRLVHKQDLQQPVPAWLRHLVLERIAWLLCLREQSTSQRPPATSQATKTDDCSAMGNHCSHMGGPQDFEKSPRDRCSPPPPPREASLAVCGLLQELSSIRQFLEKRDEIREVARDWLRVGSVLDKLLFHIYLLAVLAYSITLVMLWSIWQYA

[6] = target: GABA-A receptor; anion channel (Rattus norvegicus) (UniProt O09028+P15431+P18506+P18508+P19969+P20236+P23574+P23576+P28471+P28473+P30191+P62813+P63079+P63138+Q91ZM7+Q9ES14); conditions: Compound concentration 10.0 uM
[7] = target: D(4) dopamine receptor (Homo sapiens) (UniProt P21917); conditions: Compound concentration 10.0 uM
[8] = target: Beta-1 adrenergic receptor (Homo sapiens) (UniProt P08588); conditions: Compound concentration 10.0 uM
[9] = target: T2, Alpha-1A adrenergic receptor (Homo sapiens) (UniProt P35348); conditions: Compound concentration 10.0 uM
T2 sequence (whole entry): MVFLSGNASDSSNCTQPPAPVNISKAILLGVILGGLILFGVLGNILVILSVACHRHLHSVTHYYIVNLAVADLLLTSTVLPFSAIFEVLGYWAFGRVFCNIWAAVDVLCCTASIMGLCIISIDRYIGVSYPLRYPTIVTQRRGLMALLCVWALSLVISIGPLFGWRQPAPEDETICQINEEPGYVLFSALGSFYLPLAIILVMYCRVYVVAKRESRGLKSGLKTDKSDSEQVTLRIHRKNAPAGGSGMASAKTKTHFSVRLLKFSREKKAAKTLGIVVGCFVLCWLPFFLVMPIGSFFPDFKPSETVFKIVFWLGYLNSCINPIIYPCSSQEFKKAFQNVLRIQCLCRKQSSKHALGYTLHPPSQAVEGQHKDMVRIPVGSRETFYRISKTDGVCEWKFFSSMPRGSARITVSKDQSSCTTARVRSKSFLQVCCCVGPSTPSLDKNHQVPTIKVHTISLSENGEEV

[10] = target: 5-hydroxytryptamine receptor 6 (Homo sapiens) (UniProt P50406); conditions: Compound concentration 10.0 uM
[11] = target: Serine/threonine-protein kinase SIK1 (Homo sapiens, UniProt P57059); test: SIK(SIK1LHY1) Takeda global kinase panel
[12] = target: Prostaglandin E2 receptor EP4 subtype (Homo sapiens) (UniProt P35408); test: Inhibition of Prostanoid EP4 at 10 µM in the Eurofins-Panlabs radioligand binding assay (Eurofins_assay_268420); set-up: ligand concentration 1 nM; conditions: Compound concentration 10.0 uM
[13] = target: Alpha-2B adrenergic receptor (Homo sapiens) (UniProt P18089); conditions: Compound concentration 10.0 uM
[14] = target: Tyrosine-protein kinase Lyn (Homo sapiens, UniProt P07948); test: Lyn(LYN1LGF1) Takeda global kinase panel
[15] = target: Inhibitor of nuclear factor kappa-B kinase subunit alpha (Homo sapiens, UniProt O15111); test: IKKalpha(CHUKLGP1) Takeda global kinase panel
[16] = target: Dual specificity testis-specific protein kinase 1 (Homo sapiens, UniProt Q15569); test: TESK1(TES1LGRA) Takeda global kinase panel
[17] = target: Calcium/calmodulin-dependent protein kinase type II subunit alpha (Homo sapiens, UniProt Q9UQM7); test: CaMK2alpha(CA2ACGT1) Takeda global kinase panel
[18] = target: Bromodomain-containing protein 2 (Homo sapiens, UniProt P25440); test: BRD2(BRD2LHRC) Takeda global kinase panel
hERG (KCNH2) = hERG (KCNH2) (Homo sapiens, UniProt Q12809); test: Inhibition of Potassium Channel hERG at 10 µM in the Eurofins-Panlabs radioligand binding assay (Eurofins_assay_265900); set-up: ligand concentration 1.5 nM, non-specific ligand with concentration Astemizole, incubation time 60 min, incubation temperature 25 °C; conditions: HEK-293 cells that express human recombinant hERG, probe [3H] Astemizole, compound concentration 10 uM
[19] = target: cAMP-dependent protein kinase catalytic subunit alpha (Homo sapiens, UniProt P17612); test: PKAalpha(PRCALGH1) Takeda global kinase panel
Focal adhesion kinase 1 = Focal adhesion kinase 1 (Homo sapiens, UniProt Q05397); test: FAK(PTK2LGF1) Takeda global kinase panel
[20] = target: cAMP-dependent protein kinase catalytic subunit beta (Homo sapiens, UniProt P22694); test: PKAbeta(PRCBLGF1) Takeda global kinase panel
[21] = target: AP2-associated protein kinase 1 (Homo sapiens, UniProt Q2M2I8); test: AAK1(AAK1LGF1) Takeda global kinase panel
[22] = target: MAP kinase-activated protein kinase 2 (Homo sapiens, UniProt P49137); test: MAPKAPK2(MPK2LGRH) Takeda global kinase panel
[23] = target: Calcium/calmodulin-dependent protein kinase kinase 1 (Homo sapiens, UniProt Q8N5S9); test: CAMKK1(CAK1LGT5) Takeda global kinase panel
Misshapen-like kinase 1 = Misshapen-like kinase 1 (Homo sapiens, UniProt Q8N4C8); test: MINK [ZC3(MIN1LGF1)] Takeda global kinase panel
[24] = target: Glutamate NMDA receptor (Rattus norvegicus) (UniProt P35439+Q00959+Q00960+Q00961+Q62645+Q8VHN2+Q9R1M7); conditions: Compound concentration 10.0 uM
[25] = target: Tyrosine-protein kinase ZAP-70 (Homo sapiens, UniProt P43403); test: ZAP70(ZAP7LGP1) Takeda global kinase panel
[26] = target: Calcium/calmodulin-dependent protein kinase type II subunit delta (Homo sapiens, UniProt Q13557); test: CaMK2delta(CA2DCGT1) Takeda global kinase panel

Chain of Tyrosine-protein kinase ZAP-70 (P43403 whole entry): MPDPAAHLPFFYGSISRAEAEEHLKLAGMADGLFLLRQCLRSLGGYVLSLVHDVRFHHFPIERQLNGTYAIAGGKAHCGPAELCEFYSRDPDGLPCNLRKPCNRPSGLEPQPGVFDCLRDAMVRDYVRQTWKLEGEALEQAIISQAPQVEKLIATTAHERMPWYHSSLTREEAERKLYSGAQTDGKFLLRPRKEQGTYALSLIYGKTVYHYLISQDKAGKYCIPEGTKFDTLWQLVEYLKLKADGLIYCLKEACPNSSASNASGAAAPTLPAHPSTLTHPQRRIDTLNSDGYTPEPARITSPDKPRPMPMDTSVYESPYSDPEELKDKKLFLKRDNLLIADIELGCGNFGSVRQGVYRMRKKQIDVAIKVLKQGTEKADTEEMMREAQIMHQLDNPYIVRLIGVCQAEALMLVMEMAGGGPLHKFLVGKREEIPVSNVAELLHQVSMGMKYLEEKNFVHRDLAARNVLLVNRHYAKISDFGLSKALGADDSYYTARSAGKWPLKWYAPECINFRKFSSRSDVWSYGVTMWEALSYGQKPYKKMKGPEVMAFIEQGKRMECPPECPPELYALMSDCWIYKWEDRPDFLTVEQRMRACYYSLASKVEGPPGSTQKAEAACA
Chain of Alpha-1D adrenergic receptor (Homo sapiens) (P25100 whole entry): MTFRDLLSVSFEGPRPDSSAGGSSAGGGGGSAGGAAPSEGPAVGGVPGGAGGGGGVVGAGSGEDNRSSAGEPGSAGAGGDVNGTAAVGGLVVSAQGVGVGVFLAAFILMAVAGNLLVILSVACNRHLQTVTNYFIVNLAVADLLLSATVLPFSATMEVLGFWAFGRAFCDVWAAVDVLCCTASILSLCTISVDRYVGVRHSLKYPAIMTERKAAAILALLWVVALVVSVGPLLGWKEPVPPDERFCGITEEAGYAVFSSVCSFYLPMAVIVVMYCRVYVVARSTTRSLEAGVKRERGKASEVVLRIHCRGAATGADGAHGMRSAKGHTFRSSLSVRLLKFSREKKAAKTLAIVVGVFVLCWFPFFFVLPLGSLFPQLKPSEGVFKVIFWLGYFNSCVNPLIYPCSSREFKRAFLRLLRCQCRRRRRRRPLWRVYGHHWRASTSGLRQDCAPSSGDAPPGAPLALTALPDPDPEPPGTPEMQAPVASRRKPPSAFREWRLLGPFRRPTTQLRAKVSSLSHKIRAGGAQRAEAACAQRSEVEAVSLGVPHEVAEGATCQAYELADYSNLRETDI
Chain of hERG (KCNH2) (Q12809 whole entry): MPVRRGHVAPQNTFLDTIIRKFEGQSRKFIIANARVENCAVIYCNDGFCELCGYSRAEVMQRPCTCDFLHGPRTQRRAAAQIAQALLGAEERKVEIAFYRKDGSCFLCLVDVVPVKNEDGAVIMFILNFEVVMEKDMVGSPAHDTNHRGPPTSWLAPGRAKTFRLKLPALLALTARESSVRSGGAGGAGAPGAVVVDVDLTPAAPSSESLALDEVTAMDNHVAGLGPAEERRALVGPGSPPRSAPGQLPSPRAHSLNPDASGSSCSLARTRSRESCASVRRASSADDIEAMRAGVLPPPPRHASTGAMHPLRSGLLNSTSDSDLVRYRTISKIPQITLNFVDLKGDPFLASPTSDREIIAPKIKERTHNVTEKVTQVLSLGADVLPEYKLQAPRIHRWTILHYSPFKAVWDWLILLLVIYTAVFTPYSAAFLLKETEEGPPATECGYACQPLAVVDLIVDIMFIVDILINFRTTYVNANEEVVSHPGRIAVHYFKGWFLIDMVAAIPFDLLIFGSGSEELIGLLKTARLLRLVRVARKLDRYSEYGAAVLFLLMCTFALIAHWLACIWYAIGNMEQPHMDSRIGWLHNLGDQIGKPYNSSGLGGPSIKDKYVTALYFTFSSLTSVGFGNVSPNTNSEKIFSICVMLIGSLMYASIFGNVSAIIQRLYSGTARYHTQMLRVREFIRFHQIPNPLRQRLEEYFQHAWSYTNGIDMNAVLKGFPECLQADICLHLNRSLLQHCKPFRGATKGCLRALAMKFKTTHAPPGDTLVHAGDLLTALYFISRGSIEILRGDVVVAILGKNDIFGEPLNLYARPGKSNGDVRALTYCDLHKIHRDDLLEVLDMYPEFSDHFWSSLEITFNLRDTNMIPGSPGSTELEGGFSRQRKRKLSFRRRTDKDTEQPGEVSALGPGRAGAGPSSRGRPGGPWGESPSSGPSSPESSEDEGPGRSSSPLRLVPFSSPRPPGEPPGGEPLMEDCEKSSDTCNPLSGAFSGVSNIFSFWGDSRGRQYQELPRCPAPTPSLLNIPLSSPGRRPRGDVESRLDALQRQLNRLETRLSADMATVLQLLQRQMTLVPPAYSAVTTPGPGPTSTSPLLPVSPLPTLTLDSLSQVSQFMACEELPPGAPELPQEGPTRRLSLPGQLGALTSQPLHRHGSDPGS
Chain of Beta-1 adrenergic receptor (Homo sapiens) (P08588 whole entry, looked up): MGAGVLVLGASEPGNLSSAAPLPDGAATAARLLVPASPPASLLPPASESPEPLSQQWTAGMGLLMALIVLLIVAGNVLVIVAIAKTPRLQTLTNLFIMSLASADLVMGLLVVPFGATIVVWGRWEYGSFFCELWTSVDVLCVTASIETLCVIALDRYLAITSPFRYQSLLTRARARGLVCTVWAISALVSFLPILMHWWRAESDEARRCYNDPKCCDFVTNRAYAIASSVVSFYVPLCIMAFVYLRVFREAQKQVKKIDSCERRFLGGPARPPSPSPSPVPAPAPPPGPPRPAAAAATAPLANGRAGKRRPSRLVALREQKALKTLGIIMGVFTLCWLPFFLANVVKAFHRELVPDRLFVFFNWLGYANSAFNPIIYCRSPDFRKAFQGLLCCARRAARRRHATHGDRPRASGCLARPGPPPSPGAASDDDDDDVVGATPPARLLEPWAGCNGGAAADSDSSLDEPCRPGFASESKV
Chain of AP2-associated protein kinase 1 (Q2M2I8 whole entry): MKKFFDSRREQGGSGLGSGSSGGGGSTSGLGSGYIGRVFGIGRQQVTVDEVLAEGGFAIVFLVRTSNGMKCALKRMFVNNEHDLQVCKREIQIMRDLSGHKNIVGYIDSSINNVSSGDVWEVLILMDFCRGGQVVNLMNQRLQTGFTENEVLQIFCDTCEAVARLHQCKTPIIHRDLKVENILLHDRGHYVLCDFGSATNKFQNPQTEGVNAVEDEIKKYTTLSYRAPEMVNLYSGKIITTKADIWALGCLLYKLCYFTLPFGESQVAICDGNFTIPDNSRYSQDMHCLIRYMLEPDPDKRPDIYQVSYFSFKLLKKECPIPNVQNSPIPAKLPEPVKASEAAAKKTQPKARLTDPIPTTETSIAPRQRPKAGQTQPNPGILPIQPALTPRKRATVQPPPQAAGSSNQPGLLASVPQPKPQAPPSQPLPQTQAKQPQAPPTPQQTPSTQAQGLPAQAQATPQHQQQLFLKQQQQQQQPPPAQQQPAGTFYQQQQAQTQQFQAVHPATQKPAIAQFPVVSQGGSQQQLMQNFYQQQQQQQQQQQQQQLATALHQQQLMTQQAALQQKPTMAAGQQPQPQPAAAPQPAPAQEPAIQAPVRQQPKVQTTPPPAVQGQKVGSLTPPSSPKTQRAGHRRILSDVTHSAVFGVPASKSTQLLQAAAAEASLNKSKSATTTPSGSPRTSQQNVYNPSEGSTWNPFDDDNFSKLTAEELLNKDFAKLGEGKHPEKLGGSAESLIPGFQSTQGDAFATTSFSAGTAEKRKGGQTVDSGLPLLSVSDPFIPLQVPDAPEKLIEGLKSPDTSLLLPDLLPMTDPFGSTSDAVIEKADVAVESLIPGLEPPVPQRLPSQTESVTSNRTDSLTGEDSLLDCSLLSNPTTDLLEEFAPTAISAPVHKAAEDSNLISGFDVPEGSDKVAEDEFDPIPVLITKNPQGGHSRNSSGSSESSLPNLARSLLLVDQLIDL
Chain of Alpha-2B adrenergic receptor (Homo sapiens) (P18089 whole entry): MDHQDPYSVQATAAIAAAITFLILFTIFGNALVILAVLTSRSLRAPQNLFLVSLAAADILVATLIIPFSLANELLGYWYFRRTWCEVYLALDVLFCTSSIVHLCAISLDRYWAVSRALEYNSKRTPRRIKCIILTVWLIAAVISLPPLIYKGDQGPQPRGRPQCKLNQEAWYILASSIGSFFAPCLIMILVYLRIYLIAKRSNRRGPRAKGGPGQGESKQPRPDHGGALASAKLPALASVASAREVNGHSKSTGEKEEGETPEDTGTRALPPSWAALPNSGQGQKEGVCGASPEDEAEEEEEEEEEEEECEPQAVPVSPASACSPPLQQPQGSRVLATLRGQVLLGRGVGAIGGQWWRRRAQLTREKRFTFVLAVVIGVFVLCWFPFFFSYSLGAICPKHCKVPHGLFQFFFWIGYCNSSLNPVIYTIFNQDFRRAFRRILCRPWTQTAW
Chain of D(4) dopamine receptor (Homo sapiens) (P21917 whole entry): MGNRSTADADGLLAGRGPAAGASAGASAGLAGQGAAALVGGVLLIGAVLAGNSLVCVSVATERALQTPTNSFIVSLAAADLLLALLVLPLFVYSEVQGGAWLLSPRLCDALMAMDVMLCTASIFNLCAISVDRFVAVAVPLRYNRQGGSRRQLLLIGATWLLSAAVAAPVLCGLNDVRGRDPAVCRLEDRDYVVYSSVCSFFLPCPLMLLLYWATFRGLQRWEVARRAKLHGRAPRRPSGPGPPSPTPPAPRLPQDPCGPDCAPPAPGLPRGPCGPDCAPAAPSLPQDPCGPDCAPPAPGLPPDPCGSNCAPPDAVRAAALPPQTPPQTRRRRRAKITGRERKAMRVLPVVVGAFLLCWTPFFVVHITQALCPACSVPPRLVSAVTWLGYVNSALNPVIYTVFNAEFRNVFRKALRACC
Chain of Histamine H4 receptor (Homo sapiens) (Q9H3N8 whole entry): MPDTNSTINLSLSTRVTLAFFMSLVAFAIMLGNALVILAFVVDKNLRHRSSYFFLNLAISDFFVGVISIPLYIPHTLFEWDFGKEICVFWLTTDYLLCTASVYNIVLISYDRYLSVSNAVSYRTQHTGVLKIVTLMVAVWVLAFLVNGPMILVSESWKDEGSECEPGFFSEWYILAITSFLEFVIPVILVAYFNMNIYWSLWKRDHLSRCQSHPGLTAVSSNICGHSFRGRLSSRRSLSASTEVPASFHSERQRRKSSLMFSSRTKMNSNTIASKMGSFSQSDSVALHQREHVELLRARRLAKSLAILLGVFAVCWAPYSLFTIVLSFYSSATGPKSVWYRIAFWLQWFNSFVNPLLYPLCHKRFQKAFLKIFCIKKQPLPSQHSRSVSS

SMILES: CN1C(=O)[C@@H](N2CCc3cn(Cc4ccccc4)nc3C2=O)COc2ccccc21 [TP-030-1]
- inhibition [1]: 10.6%
- inhibition [2]: -2%
- inhibition [3]: -4.81%
- inhibition [4]: 6.09%
- inhibition [5]: 40.8%
- inhibition [6]: 10.5%
- inhibition [7]: 17.4%
- inhibition [8]: -8%
- inhibition [9]: -0.5%
- inhibition [10]: -3.95%
- IC50 [11]: 1 µM
- inhibition [12]: 12%
- inhibition [13]: 43.3%

SMILES: CN1C(=O)[C@@H](N2CCc3cn(CC4CCS(=O)(=O)CC4)nc3C2=O)COc2ccccc21 [TP-030n]
- IC50 [14]: 1 µM
- IC50 [15]: 1 µM
- IC50 [16]: 1 µM
- IC50 [17]: 1 µM
- IC50 [18]: 1 µM
- inhibition at 60 min, 10 µM (hERG (KCNH2)): 11% (not active)
- IC50 [19]: 1 µM
- IC50 (Focal adhesion kinase 1): 1 µM
- IC50 [20]: 1 µM
- IC50 [21]: 1 µM
- IC50 [22]: 1 µM
- IC50 [23]: 1 µM
- IC50 (Misshapen-like kinase 1): 1 µM
- inhibition [24]: 4%
- IC50 [25]: 1 µM
- IC50 [26]: 1 µM
